Measurements: ChEMBL document CHEMBL4627246, “Pyroglutamide-Based P2X7 Receptor Antagonists Targeting Inflammatory Bowel Disease” (J Med Chem, 2020)

Legend:
Assay type in all cases: cell-based
[1] = tested on: EKVX; experiment: Cytotoxicity against human EKVX cells assessed as effect on cell growth at 10 uM incubated for 48 hrs by sulforhodamine B assay
[2] = tested on: HL-60(TB); experiment: Cytotoxicity against human HL-60(TB) cells assessed as effect on cell growth at 10 uM incubated for 48 hrs by sulforhodamine B assay
[3] = tested on: NCI-H522; experiment: Cytotoxicity against human NCI-H522 cells assessed as effect on cell growth at 10 uM incubated for 48 hrs by sulforhodamine B assay; conditions: nci-h522, 48 h
[4] = tested on: HCC 2998; experiment: Cytotoxicity against human HCC2998 cells assessed as effect on cell growth at 10 uM incubated for 48 hrs by sulforhodamine B assay; conditions: hcc 2998, 48 h
[5] = tested on: HCT-15; experiment: Cytotoxicity against human HCT15 cells assessed as effect on cell growth at 10 uM incubated for 48 hrs by sulforhodamine B assay; conditions: hct-15, 48 h
[6] = tested on: SNB-19; experiment: Cytotoxicity against human SNB19 cells assessed as effect on cell growth at 10 uM incubated for 48 hrs by sulforhodamine B assay; conditions: snb-19, 48 h
[7] = tested on: SNB-75; experiment: Cytotoxicity against human SNB75 cells assessed as effect on cell growth at 10 uM incubated for 48 hrs by sulforhodamine B assay; conditions: snb-75, 48 h
[8] = tested on: SK-MEL-2; experiment: Cytotoxicity against human SK-MEL-2 cells assessed as effect on cell growth at 10 uM incubated for 48 hrs by sulforhodamine B assay; conditions: sk-mel-2, 48 h
[9] = tested on: SK-MEL-5; experiment: Cytotoxicity against human SK-MEL-5 cells assessed as effect on cell growth at 10 uM incubated for 48 hrs by sulforhodamine B assay; conditions: sk-mel-5, 48 h
[10] = tested on: UACC-62; experiment: Cytotoxicity against human UACC62 cells assessed as effect on cell growth at 10 uM incubated for 48 hrs by sulforhodamine B assay; conditions: uacc-62, 48 h
[11] = tested on: IGROV-1; experiment: Cytotoxicity against human IGROV1 cells assessed as effect on cell growth at 10 uM incubated for 48 hrs by sulforhodamine B assay; conditions: igrov-1, 48 h
[12] = tested on: OVCAR-5; experiment: Cytotoxicity against human OVCAR5 cells assessed as effect on cell growth at 10 uM incubated for 48 hrs by sulforhodamine B assay; conditions: ovcar-5, 48 h
[13] = tested on: 786-0; experiment: Cytotoxicity against human 786-0 cells assessed as effect on cell growth at 10 uM incubated for 48 hrs by sulforhodamine B assay; conditions: 786-0, 48 h
[14] = tested on: ACHN; experiment: Cytotoxicity against human ACHN cells assessed as effect on cell growth at 10 uM incubated for 48 hrs by sulforhodamine B assay
[15] = tested on: RXF 393; experiment: Cytotoxicity against human RXF393 cells assessed as effect on cell growth at 10 uM incubated for 48 hrs by sulforhodamine B assay; conditions: rxf 393, 48 h
[16] = tested on: UO-31; experiment: Cytotoxicity against human UO31 cells assessed as effect on cell growth at 10 uM incubated for 48 hrs by sulforhodamine B assay; conditions: uo-31, 48 h
[17] = tested on: DU-145; experiment: Cytotoxicity against human DU145 cells assessed as effect on cell growth at 10 uM incubated for 48 hrs by sulforhodamine B assay; conditions: du-145, 48 h
[18] = tested on: MCF7; experiment: Cytotoxicity against human MCF7 cells assessed as effect on cell growth at 10 uM incubated for 48 hrs by sulforhodamine B assay; conditions: mcf7, 48 h
[19] = tested on: MDA-MB-231; experiment: Cytotoxicity against human MDA-MB-231 cells assessed as effect on cell growth at 10 uM incubated for 48 hrs by sulforhodamine B assay; conditions: mda-mb-231, 48 h
[20] = tested on: T47D; experiment: Cytotoxicity against human T47D cells assessed as effect on cell growth at 10 uM incubated for 48 hrs by sulforhodamine B assay

Measured: Activity

O=C(NCCc1ccccc1)[C@@H]1CCC(=O)N1Cc1ccc(Br)cc1
Non-Toxic: all assays above

COc1ccc(CN2C(=O)CC[C@H]2C(=O)NCCc2ccccc2)cc1
Non-Toxic: all assays above

O=C(NCc1ccc(Cl)cc1Cl)[C@@H]1CCC(=O)N1C(c1ccccc1)c1ccccc1
Non-Toxic: all assays above

CCCCCCN1C(=O)[C@@H]2C/C(=C\N(C)C)C(=O)N2C1N(C)C (stereo not given in full)
Non-Toxic: all assays above

CN1CCN(/C=C2\C[C@@H](C(=O)NCc3ccc(Cl)cc3Cl)N(c3cccs3)C2=O)CC1
Non-Toxic: all assays above

COc1ccc(NC(=O)[C@@H]2C/C(=C\N(C)C)C(=O)N2)cc1
Non-Toxic: all assays above

O=C(NCc1ccc(Cl)cc1Cl)[C@@H]1CCC(=O)N1c1ccc(Cl)cc1Cl
Non-Toxic: all assays above

CN(C)C(=O)[C@@H]1CCC(=O)N1
Non-Toxic: all assays above

CN1C(=O)C(C)(C)C[C@H]1C(=O)NCc1cccc(C(F)(F)F)c1Cl
Non-Toxic: all assays above

N#Cc1ccc(N2C(=O)CC[C@H]2C(=O)NCc2ccc(Cl)cc2Cl)cc1
Non-Toxic: all assays above

CCCCCCN1C(=O)[C@@H]2CCC(=O)N2C1N(C)C (stereo not given in full)
Non-Toxic: all assays above

O=C1N[C@H](C(=O)NCc2ccc(Cl)cc2Cl)C/C1=C/NCc1ccc(Cl)cc1Cl
Non-Toxic: all assays above

CN(C)/C=C1\C[C@H]2C(=O)N(/C(=C/N(C)C)c3ccncc3)C(N(C)C)N2C1=O (stereo not given in full)
Non-Toxic: all assays above

O=C(NCCc1ccc(Cl)cc1Cl)[C@@H]1CCC(=O)N1c1ccccc1
Non-Toxic: all assays above
